Converted amounts (≈) assume the structure as drawn.

The term MIC denotes the lowest concentration found to suppress growth. A higher MIC goes with weaker potency.

Holding throughout (assay): ≥ marks a high value that may be exact or a test limit, other limits are often not marked, values filed in µg/mL are converted to µM
Assay [1] has as its system Mycobacterium tuberculosis H37Rv.
The test system of assay [2] is Escherichia coli.
Assay [3] has as its system Klebsiella pneumoniae.
The test system of assay [4] is Staphylococcus epidermidis.
Assay [5] has as its system Proteus mirabilis.
Assay [6] deals with Micrococcus luteus.
For assay [7], the system named is Shigella dysenteriae.
Assay [8] has as its system Bacillus subtilis.
In assay [9] the test system is Staphylococcus aureus.
Assay [10] has as its system Salmonella typhimurium.
Assay [11] concerns Pseudomonas aeruginosa.
The test system of assay [12] is Serratia marcescens.
Assay [13] concerns Staphylococcus aureus ATCC 2592.
For assay [14], the system named is Escherichia coli ATCC 25922.
The subject of assay [15] is Streptococcus uberis.
Assay [16] concerns Listeria innocua.
The subject of assay [17] is Bacillus cereus.
Assay [18] has as its system Enterococcus faecalis.
Assay [19] concerns Pasteurella multocida.
The test system of assay [20] is Leuconostoc lactis.
In assay [21] the test system is Pseudomonas aeruginosa ATCC 27853.
For assay [22], the system named is Corynebacterium glutamicum ATCC 13032.
Assay [23] concerns Staphylococcus aureus ATCC 9144.
The test system of assay [24] is Acinetobacter baumannii.
For assay [25], the system named is Staphylococcus aureus ATCC 6538P.
The test system of assay [26] is Micrococcus luteus ATCC 10240.
The test system of assay [27] is Staphylococcus aureus TK784.
Assay [28] relates to Klebsiella pneumoniae ATCC 10031.
Assay [29] relates to Shigella dysenteriae ATCC 9752.
Assay [30] has as its system Staphylococcus epidermidis ATCC 12228.
For assay [31], the system named is Salmonella enterica subsp. enterica serovar Typhimurium ATCC 14028.
Assay [32] deals with Bacillus subtilis ATCC 6633.

The molecule `CC(C)C[C@H](NC(=O)[C@H](Cc1c[nH]c2ccccc12)NC(=O)[C@H](Cc1c[nH]c2ccccc12)NC(=O)[C@H](CCCN=C(N)N)NC(=O)[C@H](CO)NC(=O)[C@H](CC(C)C)NC(=O)[C@H](CCCCN)NC(=O)[C@H](CCCCN)NC(=O)[C@@H](NC(=O)[C@H](C)N)C(C)C)C(=O)N[C@@H](CCCN=C(N)N)C(=O)N[C@@H](Cc1c[nH]c2ccccc12)C(=O)N[C@@H](Cc1c[nH]c2ccccc12)C(=O)N[C@@H](CCCCN)C(=O)N[C@@H](CCCCN)C(=O)O` [AVKKLSRWWLRWWKK] came in with a minimum inhibitory concentration (MIC) in assay [1] of 18.1 µM (≈ 37.5 µg/mL).

For `CC(C)C[C@H](NC(=O)[C@H](C)NC(=O)CNC(=O)[C@H](CC(C)C)NC(=O)[C@@H](N)Cc1ccccc1)C(=O)N[C@@H](Cc1ccccc1)C(=O)N[C@@H](CCCCN)C(=O)N[C@H](C(=O)N[C@@H](C)C(=O)N[C@@H](CO)C(=O)N[C@@H](CCCCN)C(=O)N[C@H](C(=O)O)C(C)C)C(C)C` [FLGALFKVASKV], the MIC in [2] was > 156 µM; in assay [3], > 156 µM; in assay [4], ≥ 156 µM; in [5] it was ≥ 156 µM; in [6] it was ≥ 156 µM; in [7] it was ≥ 156 µM. The MIC in assay [8] was ≥ 156 µM; in assay [9], > 156 µM; in [10] it was ≥ 156 µM; in [11], > 156 µM.

Regarding `CC(C)C[C@H](NC(=O)[C@H](C)NC(=O)CNC(=O)[C@H](CC(C)C)NC(=O)[C@@H](N)Cc1ccccc1)C(=O)N[C@@H](Cc1ccccc1)C(=O)N[C@@H](CCCCN)C(=O)N[C@H](C(=O)N[C@@H](C)C(=O)N[C@@H](Cc1c[nH]c2ccccc12)C(=O)N[C@@H](CCCCN)C(=O)O)C(C)C` [FLGALFKVAWK], the MIC in assay [2] was 78.2 µM (≈ 100 µg/mL); in assay [3] it was 39.1 µM (≈ 50 µg/mL); in [4] it was ≥ 39.1 µM; in assay [5], ≥ 156 µM; in assay [6], 19.5 µM (≈ 25 µg/mL); in assay [7] it was ≥ 78.2 µM. Further, the MIC was 19.5 µM (≈ 25 µg/mL) in [8], 9.77 µM (≈ 12.5 µg/mL) in assay [9], ≥ 156 µM in assay [10] and > 156 µM in assay [11].

Consider `CC(C)C[C@H](NC(=O)[C@H](C)NC(=O)CNC(=O)[C@H](CC(C)C)NC(=O)[C@@H](N)Cc1ccccc1)C(=O)N[C@@H](Cc1ccccc1)C(=O)N[C@@H](CCCCN)C(=O)N[C@H](C(=O)N[C@@H](Cc1c[nH]c2ccccc12)C(=O)N[C@@H](CO)C(=O)N[C@@H](CCCCN)C(=O)O)C(C)C` [FLGALFKVWSK], for which the MIC in [2] is > 154 µM; in assay [3] it was > 154 µM; in assay [4] it was ≥ 154 µM; in [5] it was ≥ 154 µM; in assay [6] it was ≥ 154 µM; in assay [7] it was ≥ 154 µM. The MIC in [8] was ≥ 154 µM; in assay [9] it was > 154 µM; in assay [10] it was ≥ 154 µM; in [11], > 154 µM.

`CC[C@H](C)[C@@H]1NC(=O)[C@H](CCCCN)NC(=O)[C@@H](NC(=O)[C@H](CCSC)NC(=O)[C@H](CC(C)C)NC(=O)[C@@H]2CCCN2C(=O)[C@H](Cc2ccccc2)NC(=O)[C@H](CC(C)C)NC(=O)[C@H](CC(C)C)NC(=O)[C@@H](N)Cc2ccccc2)CSSC[C@@H](C(=O)O)NC(=O)[C@H](CCCCN)NC(=O)CNC(=O)[C@H](CCC(N)=O)NC1=O` [FLLFPLMCKIQGKC]: the MIC is ≥ 60.9 µM in assay [12], > 60.9 µM in [3], 22.9 µM (≈ 37.5 µg/mL) in [13] and > 60.9 µM in assay [14].

Take `CC(C)C[C@H](NC(=O)[C@H](C)NC(=O)CN)C(=O)N[C@@H](Cc1ccccc1)C(=O)N[C@@H](CCCCN)C(=O)N[C@H](C(=O)N[C@@H](C)C(=O)N[C@@H](CO)C(=O)N[C@@H](CCCCN)C(=O)N[C@H](C(=O)N[C@@H](CC(C)C)C(=O)N1CCC[C@H]1C(=O)N[C@@H](CO)C(=O)O)C(C)C)C(C)C` [GALFKVASKVLPS]: the MIC in assay [2] was > 152 µM; in [3], > 152 µM; in [4], ≥ 152 µM; in assay [5], ≥ 152 µM; in [6] it was ≥ 152 µM; in [7] it was ≥ 152 µM. Besides, the MIC in assay [8] was ≥ 152 µM; in assay [9], > 152 µM; in assay [10], ≥ 152 µM; in assay [11] it was > 152 µM.

Turning to `CC[C@H](C)[C@H](NC(=O)[C@H](C)NC(=O)[C@@H]1CCCN1C(=O)[C@@H](NC(=O)[C@@H](NC(=O)[C@H](Cc1cnc[nH]1)NC(=O)[C@H](C)NC(=O)[C@H](C)NC(=O)[C@@H](NC(=O)[C@H](CCCCN)NC(=O)[C@H](C)NC(=O)[C@H](CC(C)C)NC(=O)[C@@H](NC(=O)CNC(=O)[C@H](Cc1ccccc1)NC(=O)[C@H](CC(C)C)NC(=O)CN)C(C)C)C(C)C)C(C)C)C(C)C)C(=O)N[C@@H](C)C(=O)N[C@@H](CCC(=O)O)C(=O)N[C@@H](Cc1cnc[nH]1)C(=O)N[C@@H](Cc1ccccc1)C(=O)O` [GLFGVLAKVAAHVVPAIAEHF], the MIC is ≥ 46.6 µM in assay [15]; > 46.6 µM in [2]; ≥ 46.6 µM in assay [16]; ≥ 46.6 µM in [4]; ≥ 46.6 µM in assay [6]; ≥ 46.6 µM in assay [17]. In addition, the MIC is > 46.6 µM in assay [9], ≥ 46.6 µM in assay [18], ≥ 46.6 µM in assay [19] and 23.3 µM (≈ 50 µg/mL) in assay [20].

Turning to `CC(C)[C@H](NC(=O)[C@@H](NC(=O)[C@H](CCCN=C(N)N)NC(=O)[C@H](CCCN=C(N)N)NC(=O)[C@H](Cc1c[nH]c2ccccc12)NC(=O)[C@H](Cc1c[nH]c2ccccc12)NC(=O)CN)[C@@H](C)O)C(=O)N[C@@H](CCCN=C(N)N)C(=O)N[C@@H](CCCCN)C(N)=O` [GWWRRTVRK], the MIC in assay [14] is 50 µM (≈ 62.2 µg/mL); in assay [21], 25 µM (≈ 31.1 µg/mL); in [22] it was 3.1 µM (≈ 3.85 µg/mL); in assay [23] it was ≥ 100 µM.

Turning to `CC(C)C[C@H](NC(=O)[C@H](Cc1c[nH]c2ccccc12)NC(=O)[C@H](CCCCN)NC(=O)[C@H](CC(C)C)NC(=O)[C@H](CC(C)C)NC(=O)[C@H](CCCCN)NC(=O)[C@H](CCCN=C(N)N)NC(=O)[C@H](Cc1c[nH]c2ccccc12)NC(=O)[C@H](CCCCN)NC(=O)[C@@H](N)CCCCN)C(=O)N[C@@H](C)C(=O)N[C@@H](CCCCN)C(=O)N[C@@H](CCCCN)C(N)=O` [KKWRKLLKWLAKK], the MIC in assay [24] was 1.33 µM (≈ 2.3 µg/mL); in assay [9], 2.49 µM (≈ 4.3 µg/mL); in [18] it was 1.56 µM (≈ 2.7 µg/mL); in [11], 0.753 µM (≈ 1.3 µg/mL).

On to `CC(C)C[C@H](NC(=O)[C@H](CC(C)C)NC(=O)[C@@H](N)Cc1c[nH]c2ccccc12)C(=O)N[C@@H](CCCCN)C(=O)N[C@@H](Cc1c[nH]c2ccccc12)C(N)=O` [WLLKW], for which the MIC in [25] was ≥ 107 µM; in [26], ≥ 107 µM; in assay [27] it was ≥ 107 µM; in assay [28], ≥ 107 µM; in assay [29], ≥ 107 µM; in assay [30], > 107 µM. Moreover, the MIC in assay [14] was > 107 µM; in assay [31] it was > 107 µM; in assay [21] it was > 107 µM; in [32], ≥ 107 µM.

Source of the values: DBAASP.
